Measurements: patent publication US12396461B2, “Functional peptides having antimicrobial activity against phytopathogenic microorganisms” (TOYOTA JIDOSHA KABUSHIKI KAISHA, priority 2019, dated 2025)
“And” between values parts separate entries of the source, which are not always exact repeats. Equal entries are not always repeated. Where two headings read alike, the source gives them in different places.

Assays:
Botrytis cinerea = assay type: cell-based; set-up: key to Plate antimicrobial activity test Botrytis cinerea, level: a case where hyphae extended to the entire well and no antimicrobial activity was found is defined as “level 0,”; a case where hyphae extended to less than a half of the well and thus the peptide inhibited the growth of the hyphae is defined as “level 1,”; a case where ungerminated spores were present and the peptide partially inhibited the germination is defined as “level 2,”; a case where all spores were ungerminated and the peptide completely inhibited the germination is defined as “level 3.”; conditions: 25° C. for 1 day or 2 days, microscopic observation
[1] = tested on: Colletotrichum orbiculare; assay type: cell-based; set-up: key to Plate antimicrobial activity test Colletotrichum orbiculare, level: a case where hyphae extended to the entire well and no antimicrobial activity was found is defined as “level 0,”; a case where hyphae extended to less than a half of the well and thus the peptide inhibited the growth of the hyphae is defined as “level 1,”; a case where ungerminated spores were present and the peptide partially inhibited the germination is defined as “level 2,”; a case where all spores were ungerminated and the peptide completely inhibited the germination is defined as “level 3.”; conditions: 25° C. for 1 day or 2 days, microscopic observation
Fusarium oxysporum = assay type: cell-based; set-up: key to Plate antimicrobial activity test Fusarium oxysporum, level: a case where hyphae extended to the entire well and no antimicrobial activity was found is defined as “level 0,”; a case where hyphae extended to less than a half of the well and thus the peptide inhibited the growth of the hyphae is defined as “level 1,”; a case where ungerminated spores were present and the peptide partially inhibited the germination is defined as “level 2,”; a case where all spores were ungerminated and the peptide completely inhibited the germination is defined as “level 3.”
[2] = tested on: Colletotrichum destructivum; assay type: cell-based; set-up: key to Plate antimicrobial activity test Colletotrichum destructivum, level: a case where hyphae extended to the entire well and no antimicrobial activity was found is defined as “level 0,”; a case where hyphae extended to less than a half of the well and thus the peptide inhibited the growth of the hyphae is defined as “level 1,”; a case where ungerminated spores were present and the peptide partially inhibited the germination is defined as “level 2,”; a case where all spores were ungerminated and the peptide completely inhibited the germination is defined as “level 3.”; conditions: 25° C. for 1 day or 2 days, microscopic observation
[3] = tested on: Colletotrichum destructivum; assay: Colletotrichum destructivum leaf inoculation test (Chinese cabbage leaf); assay type: in vivo; conditions: peptide 100 μM; Chinese cabbage leaf, 25° C. for 4 days, lesions by visual inspection; symbols ◯/Δ/X not defined
Description: In the present example, a suspension comprising Colletotrichum destructivum and a peptide to be tested was dropped on a plant leaf, and lesions were then observed by visual inspection to evaluate the antimicrobial activity of the tested peptide. First, the pores of Colletotrichum destructivum were suspended in water to result in a spore concentration of 5×10^5 spores/ml, so as to prepare a water suspension of spores. Subsequently, a peptide to be tested (TsORF6-1) was added to the water suspension of spores, so that the final concentration of the peptide to be tested became 0 μM, 1 μM, 10 μM or 100 μM. Thereafter, 10 μl each of the water suspension of spores containing the peptide to be tested was dropped on the front side and the back side of the leaf of Chinese cabbage (variety name: “Kigokoro 85”). In this condition, incubation was carried out at 25° C. for 4 days. Thereafter, the front and back sides of the leaf were observed by visual inspection.

Pyricularia oryzae = assay type: cell-based; set-up: key to Plate antimicrobial activity test Pyricularia oryzae, level: a case where hyphae extended to the entire well and no antimicrobial activity was found is defined as “level 0,”; a case where hyphae extended to less than a half of the well and thus the peptide inhibited the growth of the hyphae is defined as “level 1,”; a case where ungerminated spores were present and the peptide partially inhibited the germination is defined as “level 2,”; a case where all spores were ungerminated and the peptide completely inhibited the germination is defined as “level 3.”; conditions: 25° C. for 1 day or 2 days, microscopic observation

Row | Substance | Plate antimicrobial activity test Botrytis cinerea, level (Botrytis cinerea; peptide 1 μM) | Plate antimicrobial activity test Botrytis cinerea, level (Botrytis cinerea; peptide 10 μM) | Plate antimicrobial activity test Botrytis cinerea, level (Botrytis cinerea; peptide 100 μM) | Plate antimicrobial activity test Colletotrichum orbiculare, level ([1]; peptide 1 μM) | Plate antimicrobial activity test Colletotrichum orbiculare, level ([1]; peptide 10 μM) | Plate antimicrobial activity test Colletotrichum orbiculare, level ([1]; peptide 100 μM) | Plate antimicrobial activity test Fusarium oxysporum, level (Fusarium oxysporum) | Plate antimicrobial activity test Colletotrichum destructivum, level ([2]; peptide 1 μM) | Plate antimicrobial activity test Colletotrichum destructivum, level ([2]; peptide 10 μM) | Plate antimicrobial activity test Colletotrichum destructivum, level ([2]; peptide 100 μM) | Leaf inoculation test Chinese cabbage/Colletotrichum destructivum [3] | Plate antimicrobial activity test Pyricularia oryzae, level (Pyricularia oryzae; peptide 1 μM) | Plate antimicrobial activity test Pyricularia oryzae, level (Pyricularia oryzae; peptide 10 μM) | Plate antimicrobial activity test Pyricularia oryzae, level (Pyricularia oryzae; peptide 100 μM)
1 | KVKNK (listed as Solanum lycopersicum) [TsORF6-1-5aa-10, partial peptide of TsORF6-1, 5 amino acid residues] | 0 | 0 | 0 | 0 | 0 | 0 | 0 and 1 | 0 | 0 | 0 | Δ | 0 | 0 | 0
2 | KNKKV (listed as Solanum lycopersicum) [TsORF6-1-5aa-12, partial peptide of TsORF6-1, 5 amino acid residues] | 0 | 0 | 0 | 0 | 0 | 0 | 0 | 0 | 0 | 0 |  | 0 | 0 | 0
3 | MIVVK (listed as Solanum lycopersicum) [TsORF6-1-5aa-4, partial peptide of TsORF6-1, 5 amino acid residues] | 0 | 0 | 1 | 0 | 0 | 1 | 0 | 0 | 0 | 1 |  | 0 | 0 | 1
4 | IVVKT (listed as Solanum lycopersicum) [TsORF6-1-5aa-5, partial peptide of TsORF6-1, 5 amino acid residues] | 0 | 0 | 0 | 0 | 0 | 0 | 0 | 0 | 0 | 0 |  | 0 | 0 | 0
5 | TKVKN (listed as Solanum lycopersicum) [TsORF6-1-5aa-9, partial peptide of TsORF6-1, 5 amino acid residues] | 0 | 0 | 0 | 0 | 0 | 0 | 0 | 0 | 0 | 0 |  | 0 | 0 | 0
6 | NKKVA (listed as Solanum lycopersicum) [TsORF6-1-5aa-13, partial peptide of TsORF6-1, 5 amino acid residues] | 0 | 0 | 0 | 0 | 0 | 0 | 0 | 0 | 0 | 0 |  | 0 | 0 | 0
7 | MIVVKTKV (listed as Solanum lycopersicum) [TsORF6-1-8aa-4, partial peptide of TsORF6-1, 8 amino acid residues] | 0 | 0 | 0 | 0 | 0 | 0 | 0 | 0 | 0 | 0 |  | 0 | 0 | 0
8 | IVVKTKVK (listed as Solanum lycopersicum) [TsORF6-1-8aa-5, partial peptide of TsORF6-1, 8 amino acid residues] | 0 | 0 | 0 | 0 | 0 | 0 | 0 | 0 | 0 | 0 |  | 0 | 0 | 0
9 | KNKKVAKM (listed as Solanum lycopersicum) [TsORF6-1-8aa-12, partial peptide of TsORF6-1, 8 amino acid residues] | 0 | 0 | 0 | 0 | 0 | 0 | 0 | 0 | 0 | 0 |  | 0 | 0 | 0
